The target in assay [1] is GDP-bound KRAS wild-type protein (Homo sapiens, UniProt P01116). The assay is described as follows: Binding to KRAS by surface plasmon resonance (SPR), Single Cycle Kinetics. As to conditions: SPR, Single Cycle Kinetics, GDP-bound KRAS wild-type protein; read-out: KRAS KD. A general note: SPR reads the build-up and loss of mass on a sensor chip optically.
Assay [2] addresses GDP-bound NRAS wild-type protein (Homo sapiens, UniProt P01111). The assay is described as follows: Binding to NRAS by surface plasmon resonance (SPR), Single Cycle Kinetics. As to conditions: ratio of KD for GDP-bound NRAS wild-type protein to KD for KRAS, SPR.
The target of assay [3] is GDP-bound HRAS wild-type protein (Homo sapiens, UniProt P01112). The assay is described as follows: Binding to HRAS by surface plasmon resonance (SPR), Single Cycle Kinetics. As to conditions: ratio of KD for GDP-bound HRAS wild-type protein to KD for KRAS, SPR.
Chain of GDP-bound HRAS wild-type protein (P01112 whole entry): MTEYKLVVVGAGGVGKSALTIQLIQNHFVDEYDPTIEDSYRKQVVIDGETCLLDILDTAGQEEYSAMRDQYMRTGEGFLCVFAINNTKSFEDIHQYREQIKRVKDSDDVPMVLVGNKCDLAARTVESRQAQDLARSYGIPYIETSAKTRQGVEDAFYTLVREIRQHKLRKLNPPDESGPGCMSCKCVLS
The test system of assay [4] is human lung cancer strain NCI-H441. Kind of assay: cells. As to conditions: NCI-H441, 96 h, read-out: NCI-H441 IC50 (nM), NCI-H441 cell proliferation, 4 days, CellTiter-Glo. Background: ATP-based viability assays read luminescence as a measure of living cells.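 Further: cell proliferation inhibition after four days measured by CellTiter-Glo.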

Chain of GDP-bound NRAS wild-type protein (P01111 whole entry): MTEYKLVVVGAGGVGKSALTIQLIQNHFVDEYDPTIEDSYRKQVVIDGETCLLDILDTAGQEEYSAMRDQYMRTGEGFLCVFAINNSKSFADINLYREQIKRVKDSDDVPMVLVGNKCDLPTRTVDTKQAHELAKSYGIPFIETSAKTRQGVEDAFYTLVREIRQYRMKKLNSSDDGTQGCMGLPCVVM
Chain of GDP-bound KRAS wild-type protein (P01116 whole entry): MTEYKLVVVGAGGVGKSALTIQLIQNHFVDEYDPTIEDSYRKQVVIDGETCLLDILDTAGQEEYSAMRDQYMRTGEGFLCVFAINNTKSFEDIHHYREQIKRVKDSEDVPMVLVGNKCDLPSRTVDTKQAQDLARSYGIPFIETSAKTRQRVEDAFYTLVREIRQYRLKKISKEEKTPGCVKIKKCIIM

Consider `CCO[C@@H]1C[C@H]2C(=O)NC3(CC(F)(F)C3)C(=O)N(C)[C@@H](C3CCCC3)C(=O)N(C)[C@H](C(=O)N(C)CC)CC(=O)N(C)[C@@H](CC3CC3)C(=O)N[C@@H]([C@@H](C)CC)C(=O)N(C)CC(=O)N(C)[C@H]3C/C=C\CCN(C3=O)[C@@H](Cc3ccc(C(F)(F)F)cc3)C(=O)N(C)CC(=O)N[C@@H](CCc3cc(F)c(C(F)(F)F)c(F)c3)C(=O)N2C1` [PP1738], for which the Kd in assay [1] amounted to 0.071 nM. Also, in assay [2], the “NRAS/KRAS (KD ratio)” value is on record as “AA (a compound having 20 or more is denoted as AA)”. Also, in assay [3], the “HRAS/KRAS (KD ratio)” value was “A (a compound having 10 or more and less than 20 is denoted as A)”. In addition, the IC50 in assay [4] came to 5.1 nM.

Consider `CC[C@H](C)[C@@H]1NC(=O)[C@H](CCOC)N(C)C(=O)C[C@@H](C(=O)N(C)CC)N(C)C(=O)[C@H](C2CCCC2)N(C)C(=O)C2(CC(C)(C)C2)NC(=O)[C@@H]2C[C@H](C)CN2C(=O)[C@H](CCc2ccc(C(F)(F)F)c(OC)c2)NC(=O)CN(C)C(=O)[C@H](Cc2ccc(C(F)(F)F)cc2)N2CC/C=C\C[C@@H](C2=O)N(C)C(=O)CN(C)C1=O` [PP1999], for which the Kd in assay [1] amounted to 0.13 nM. For the same compound, the “NRAS/KRAS (KD ratio)” value in assay [2] was “A (a compound having 10 or more and less than 20 is denoted as A)”. Besides, the “HRAS/KRAS (KD ratio)” value in assay [3] was “B (a compound having 3 or more and less than 10 is denoted as B)”. Further, the IC50 in assay [4] came out at 26.6 nM.

For `CC[C@H](C)[C@@H]1NC(=O)[C@H](C2CCC2)N(C)C(=O)C[C@@H](C(=O)N(C)CC)N(C)C(=O)[C@H](C2CCCC2)N(C)C(=O)C2(CC(C)(C)C2)NC(=O)[C@@H]2C[C@H](C)CN2C(=O)[C@H](CCc2cc(F)c(C(F)(F)F)c(F)c2)NC(=O)CN(C)C(=O)[C@H](Cc2ccc(C(F)(F)F)cc2)N2CC/C=C\C[C@@H](C2=O)N(C)C(=O)CN(C)C1=O` [PP1984], the Kd in assay [1] was 0.3 nM. Further, in assay [2], the “NRAS/KRAS (KD ratio)” value was “A (a compound having 10 or more and less than 20 is denoted as A)”. In addition, the “HRAS/KRAS (KD ratio)” value in assay [3] is “A (a compound having 10 or more and less than 20 is denoted as A)”. In addition, the IC50 in assay [4] came out at 50.8 nM.

Consider `CCO[C@@H]1C[C@H]2C(=O)NC3(CCC3)C(=O)N(C)[C@@H](C(CC)CC)C(=O)N(C)[C@H](CC)CC(=O)N(C)[C@@H](CC)C(=O)N[C@@H]([C@@H](C)CC)C(=O)N(C)CC(=O)N(C)[C@H]3C/C=C\CCN(C3=O)[C@@H](Cc3ccc(C(F)(F)F)cc3)C(=O)N(C)CC(=O)N[C@@H](CCc3cc(F)c(C(F)(F)F)c(F)c3)C(=O)N2C1` [PP1624], for which the Kd in assay [1] turned out to be 1.1 nM. Besides, in assay [2], the “NRAS/KRAS (KD ratio)” value was “A (a compound having 10 or more and less than 20 is denoted as A)”. Further, the “HRAS/KRAS (KD ratio)” value in assay [3] was “A (a compound having 10 or more and less than 20 is denoted as A)”. For the same compound, the IC50 in assay [4] turned out to be 55.8 nM.

`CCO[C@@H]1C[C@H]2C(=O)NC3(CC(C)(C)C3)C(=O)N(C)[C@@H](C3CCCC3)C(=O)N(C)[C@H](C(=O)N(C)C)CC(=O)N(C)[C@@H](CC)C(=O)N[C@@H]([C@@H](C)CC)C(=O)N(C)CC(=O)N(C)[C@H]3C/C=C\CCN(C3=O)[C@@H](Cc3ccc(C(F)(F)F)cc3)C(=O)N(C)CC(=O)N[C@@H](CCc3ccc(C(F)(F)F)c(Cl)c3)C(=O)N2C1` [PP1746]: the Kd in assay [1] came to 0.054 nM. Also, the “NRAS/KRAS (KD ratio)” value in assay [2] is “A (a compound having 10 or more and less than 20 is denoted as A)”. Further, the “HRAS/KRAS (KD ratio)” value in assay [3] is “A (a compound having 10 or more and less than 20 is denoted as A)”. In assay [4], the IC50 turned out to be 1.9 nM.

Take `CC[C@H](C)[C@@H]1NC(=O)[C@H](CC)N(C)C(=O)C[C@@H](C(=O)N(C)C)N(C)C(=O)[C@H](C2CCCC2)N(C)C(=O)C2(CCC2)N(C)C(=O)[C@@H]2CCCN2C(=O)[C@H](CCc2cc(F)c(C(F)(F)F)c(F)c2)NC(=O)CN(C)C(=O)[C@H](Cc2ccc(C)cc2)N2CC/C=C\C[C@@H](C2=O)N(C)C(=O)[C@@H]2CCCN2C1=O` [PP1786]: in assay [1], the Kd came to 0.14 nM. The “NRAS/KRAS (KD ratio)” value in assay [2] is “A (a compound having 10 or more and less than 20 is denoted as A)”. In addition, the “HRAS/KRAS (KD ratio)” value in assay [3] is “B (a compound having 3 or more and less than 10 is denoted as B)”. Moreover, in assay [4], the IC50 worked out at 11.4 nM.

Broadly, the Kd is the constant that tells how readily two partners part at equilibrium.

The values are drawn from US20240158446A1, “CYCLIC COMPOUND HAVING SELECTIVE INHIBITORY ACTION ON KRAS OVER HRAS AND NRAS” (CHUGAI SEIYAKU KABUSHIKI KAISHA, priority 2021, published 2024).
